Marks after values point to notes of the source that are not given here.
Tests used:
[1] = system: maize haploid seedlings of origin B73; test: doubled haploid production trial, B73 haploids (Example 4); conditions: for Ear: Plants with kernels after selfing % / Tassel: No. of fertile anthers extruded/tassel / Tassel: No. of fertile sectors/tassel / Tassel: Plants with fertile sectors % / Ear: Plants with kernels after selfing No. / Tassel: Plants with fertile sectors No. / No. of plants Survived / Ear: No. of kernels produced/ear: B73 haploids, 600 kPa, 2 days; for Ear: Plants with kernels after selfing No. / Tassel: Plants with fertile sectors No.: 11 survived; for No. of plants Survived: 11 treated; for Ear: No. of kernels produced/ear: selfed
Experimental: (§1) Ten to nineteen plants were treated for each plot. Self pollinations were conducted on these treated haploids if there were fertile sectors on the tassel. Pollen grains were collected carefully on a sheet of paper and transferred to the silks repeatedly. Silks and husks were cut back prior to pollination in order to permit maximum seed set. The numbers of fertile tassel and ear sectors, as well as the numbers of anthers and selfed kernels were recorded. Statistical analyses were as described above.

[2] = system: maize haploid seedlings of origin Oh43 × Mo17; test: doubled haploid production trial, Oh43 × Mo17 haploids (Example 4); conditions: 600 kPa, 2 days; for Ear: No. of kernels produced/ear: selfed
Experimental: as §1

haploid seedlings = test: survival of haploid seedlings treated with nitrous oxide gas (all experiments); assay type: in vivo, maize (Zea mays L.); conditions: 450 haploid seedlings treated
Experimental: The germinated seeds were transferred to small plastic pots filled with ProMix, a peat moss based growing medium (Hummert, St. Louis, Miss.). The seedlings were grown in a greenhouse for one to four weeks. Stock 6 induced 1–5 putative haploid kernels per ear (purple kernel with white embryo or yellow kernel with purple embryo) on all genotypes. A total of 715 putative haploid kernels were planted for the experiments. Most of them (94%) were determined to be haploid from their morphology and high sterility. The remaining 4.7% were misclassified F1s, 1.1% were hypoploids, and 0.3% (one plant induced from B73 and one plant from Oh43×Mol7) were spontaneous doubled haploids. […] In a second study, fourteen out of 50 treated Oh43 haploid seedlings died from fungus attack.

## [N-]=[N+]=O [nitrous oxide gas, nitrous oxide]
[1]; B73 haploids treated at the 7 leaf stage
  ear and silk abnormalities: deformed ears and delayed silk emergence
[1]; 5 leaf stage
  Ear: Plants with kernels after selfing %: 36 n.s. %
  Tassel: No. of fertile anthers extruded/tassel: 3.5 n.s /tassel
  Tassel: No. of fertile sectors/tassel: 0.5 n.s. /tassel
  Tassel: Plants with fertile sectors %: 45 n.s. %
  Ear: Plants with kernels after selfing No.: 4
  Tassel: Plants with fertile sectors No.: 5
  No. of plants Survived: 11
  Ear: No. of kernels produced/ear: 2.4 n.s. /ear
[1]; 6 leaf stage
  Ear: Plants with kernels after selfing %: 45%
  Tassel: No. of fertile anthers extruded/tassel: 13.2 /tassel
  Tassel: Plants with fertile sectors %: 64%
  Ear: Plants with kernels after selfing No.: 5
  Tassel: Plants with fertile sectors No.: 7
  No. of plants Survived: 11
  Ear: No. of kernels produced/ear: 10.7 /ear
[1]; 7 leaf stage
  Ear: Plants with kernels after selfing %: 18%
  Tassel: No. of fertile anthers extruded/tassel: 14.9 /tassel
  Tassel: No. of fertile sectors/tassel: 1.4 /tassel
  Tassel: Plants with fertile sectors %: 64%
  Ear: Plants with kernels after selfing No.: 2
  Tassel: Plants with fertile sectors No.: 7
  No. of plants Survived: 11
  Ear: No. of kernels produced/ear: 0.9 /ear
[2]; 5 leaf stage
  Ear: Plants with kernels after selfing %: 27 n.s. %
  Tassel: No. of fertile anthers extruded/tassel: 4.2 /tassel
  Tassel: Plants with fertile sectors %: 73** %
  Ear: No. of kernels produced/ear: 0.5 n.s. /ear
[2]; 5 leaf stage, 11 survived
  Ear: Plants with kernels after selfing No.: 3
  Tassel: Plants with fertile sectors No.: 8
[2]; 5 leaf stage, 11 treated
  No. of plants Survived: 11
[2]; 6 leaf stage
  Ear: Plants with kernels after selfing %: 38%
  Tassel: No. of fertile anthers extruded/tassel: 29.8** /tassel
  Tassel: No. of fertile sectors/tassel: 2.5** /tassel
  Tassel: Plants with fertile sectors %: 100** %
  Ear: No. of kernels produced/ear: 3.8 /ear
[2]; 6 leaf stage, 13 survived
  Ear: Plants with kernels after selfing No.: 5
  Tassel: Plants with fertile sectors No.: 13
[2]; 6 leaf stage, 14 treated
  No. of plants Survived: 13
[2]; 7 leaf stage
  Ear: Plants with kernels after selfing %: 13%
  Tassel: No. of fertile anthers extruded/tassel: 8.3* /tassel
  Tassel: No. of fertile sectors/tassel: 1.8** /tassel
  Tassel: Plants with fertile sectors %: 73** %
  Ear: No. of kernels produced/ear: 0.6 /ear
[2]; 7 leaf stage, 15 survived
  Ear: Plants with kernels after selfing No.: 2
  Tassel: Plants with fertile sectors No.: 11
[2]; 7 leaf stage, 19 treated
  No. of plants Survived: 15
Haploid seedlings
  survived the treatment: 92%

Source: patent publication US7135615B2, “Chromosome doubling method” (The Curators of the University of Missouri, priority 2001, dated 2006)
